Test results from publication PMC11342128, “Gold(I) and gold(III) carbene complexes from the marine betaine norzooanemonin: inhibition of thioredoxin reductase, antiproliferative and antimicrobial activity” (RSC Medicinal Chemistry, 2024).
Like-named read-outs stand apart in the source and are kept apart here.

Legend:
[1] = test system: Acinetobacter baumannii DSM30007; assay: Antibacterial activity (MIC, curve fitting); assay type: cell-based; details: for MIC, A.b.: Table 2, Acinetobacter baumannii DSM30007, 18 h, 37 °C; for MIC, A. baumannii: Table S12, ± standard error of the mean
Description: (§1) The antibacterial activity of all gold complexes was assessed against six pathogenic bacterial strains, including two Gram-positive species, i.e. Enterococcus faecium and methicillin-resistant Staphylococcus aureus (MRSA), and four Gram-negative species, i.e. Acinetobacter baumannii, Escherichia coli, Klebsiella pneumoniae, and Pseudomonas aeruginosa. Minimum inhibitory concentrations (MICs) were determined using a curve-fitting technique.
(§2) S2.1. Antibacterial Studies
(§3) Bacterial cultures were prepared by overnight aerobic incubation at 37 °C. Gram-negative strains were cultivated in Müller Hinton broth supplemented with 1% glucose at pH 7.2, while Gram-positive strains were grown in Trypticase soy yeast extract medium (TSY) with a composition of 30 g/l trypticase soy broth, 3 g/l yeast extract, and pH 7.2. The cultures were adjusted to an OD600 of 0.001, resulting in a final starting OD600 of 0.0005 for the subsequent tests. For testing, 25 μL of the prepared culture was combined with 25 μL of serially diluted test compounds in 384 well plates, following established protocols for different strains. Screening was performed at compound concentrations of 0.5, 5, and 50 µM, and for selected compounds, growth inhibition curves were recorded using DMSO stock solutions […]
(§4) Positive control compounds, namely linezolid (for MRSA strains), ciprofloxacin (for E. faecium and E. coli), and amikacin (for P. aeruginosa), were included. The maximum DMSO concentration in the assay […]
(§5) After an 18-hour incubation at 37 °C under moist conditions, the optical density at 600 nm was measured using a Fusion Universal Microplate Analyser (Perkin–Elmer, Waltham, USA). The minimum inhibitory concentration (MIC) values, representing the […]
(§6) fitting with Sigma Plot. The bacterial strains used included Gram-negative strains: Escherichia coli (DSM 1116), A. baumannii (DSM30007), K. pneumoniae (DSM111678), and Pseudomonas aeruginosa PA7 (DSM 24068); and Gram-positive strains: E. faecium (DSM20477) and Staphylococcus aureus MRSA

[2] = test system: Enterococcus faecium DSM20477; assay: Antibacterial activity (MIC, curve fitting); assay type: cell-based; details: for MIC, E.f.: Table 2, Enterococcus faecium DSM20477, 18 h, 37 °C; for MIC, E. faecium: Table S12, ± standard error of the mean
Description: as §1, §2, §3, §4, §5, §6

[3] = test system: Escherichia coli DSM 1116; assay: Antibacterial activity (MIC, curve fitting); assay type: cell-based; details: for MIC, E.c.: Table 2, Escherichia coli DSM 1116, 18 h, 37 °C; for MIC, E. coli: Table S12, ± standard error of the mean
Description: as §1, §2, §3, §4, §5, §6

[4] = test system: Klebsiella pneumoniae DSM111678; assay: Antibacterial activity (MIC, curve fitting); assay type: cell-based; details: for MIC, K.p.: Table 2, Klebsiella pneumoniae DSM111678, 18 h, 37 °C; for MIC, K. pneumoniae: Table S12, ± standard error of the mean
Description: as §1, §2, §3, §4, §5, §6

[5] = test system: Pseudomonas aeruginosa DSM 24068; assay: Antibacterial activity (MIC, curve fitting); assay type: cell-based; details: for MIC, P.a.: Table 2, Pseudomonas aeruginosa DSM 24068, 18 h, 37 °C; for MIC, P. aeruginosa: Table S12, ± standard error of the mean
Description: as §1, §2, §3, §4, §5, §6

[6] = test system: methicillin-resistant Staphylococcus aureus DSM 11822; assay: Antibacterial activity (MIC, curve fitting); assay type: cell-based
Description: as §1, §2, §3, §4, §5, §6

[7] = test system: A549 lung carcinoma cells; parameters: method as in PMID 38205632; details: read-out: Antiproliferative activity IC50, A549; cited from earlier work
[8] = test system: HT-29 colon carcinoma cells; parameters: method as in PMID 38205632; details: read-out: Antiproliferative activity IC50, HT-29; cited from earlier work
[9] = test system: MCF-7 breast adenocarcinoma cells; parameters: method as in PMID 38205632; details: read-out: Antiproliferative activity IC50, MCF-7; cited from earlier work
[10] = test system: MDA-MB-231 breast cancer cells; parameters: method as in PMID 38205632; details: read-out: Antiproliferative activity IC50, MDA-MB-231; cited from earlier work
[11] = molecular target: T1, TrxR from E. coli (Escherichia coli, UniProt P0A9P4); details: read-out: Inhibition of bacterial TrxR, IC50; isolated E. coli TrxR; investigated in previous report; cited from earlier work
T1 sequence (P0A9P4 2-321): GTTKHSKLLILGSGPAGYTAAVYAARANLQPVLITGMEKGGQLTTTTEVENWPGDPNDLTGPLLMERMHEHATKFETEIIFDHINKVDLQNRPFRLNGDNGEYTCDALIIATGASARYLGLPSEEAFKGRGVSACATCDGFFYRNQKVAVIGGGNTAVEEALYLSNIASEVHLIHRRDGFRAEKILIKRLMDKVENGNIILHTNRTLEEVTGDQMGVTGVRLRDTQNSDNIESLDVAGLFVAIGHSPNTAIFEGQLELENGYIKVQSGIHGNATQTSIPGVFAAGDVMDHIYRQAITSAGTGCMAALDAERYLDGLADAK

[12] = molecular target: T1, TrxR from E. coli; assay: Inhibition of isolated bacterial TrxR, DTNB-based assay; assay type: biochemical; parameters: purchased Sigma-Aldrich
Description: The inhibition of isolated TrxR from E. coli was determined for the selected monocarbene gold(I/III) complexes 2a–c and 4b–c using a DTNB-based assay (Table 3). […] The inhibition of bacterial TrxR for compound 2a was investigated in our previous report (Table 3).
S2.3. Inhibition of bacterial TrxR from E. coli
The TrxR (E. coli) inhibition assay was performed according to previously published procedures.[8] The assay is partly based on the procedure developed by Lu et al[9] and makes use of the reduction of DTNB (5,5′-dithiobis-(2-nitrobenzoic acid)). Solutions of E. coli TrxR (10.1 U/mL) and E. coli thioredoxin (Trx) (312 μg/mL) (both purchased from Sigma-Aldrich) were prepared in distilled water. Stock solutions of the test compounds (2 mM) were prepared in DMSO and serially diluted with TE buffer (Tris-HCl 50 mM, EDTA 1 mM, pH 7.5). 20 μL of these solutions or TE buffer without the test compounds (positive control) were mixed with the TrxR solution (10 μL), the Trx solution (10 μL) and 100 µl of NADPH (200 μM) in TE buffer in a well on a 96-well plate. As a blank control, 200 μM NADPH in TE buffer (100 μL) mixed with a DMSO / buffer mixture (40 μL) was used (final concentrations of DMSO: 0.5% v/v). The plate was incubated for 75 min at 25°C with moderate shaking. After incubation, 100 μL of a reaction mixture (TE buffer containing 200 μM NADPH and 5 mM DTNB) was added to each well to initiate the reaction. After thorough mixing, the formation of 5-TNB was monitored by a microplate reader at 405 nm in 35 s intervals (10 measurements). The values were corrected by subtraction of the blank solution absorption values. The increase in concentration of 5-TNB followed a linear trend (r2≥ 0.990) and the enzymatic activities were calculated as the gradients (increase in absorbance per second) thereof. […]
for each test compound, where the highest test compound concentration was used and the enzyme solution was replaced by TE buffer. The inhibition is presented as the mean IC50 values and standard deviations obtained in three independent experiments.
Table S13. Activity of TrxR from E. coli in presence of compounds at 0.5 µM (n = 2, n.d.= not

[13] = test system: A549 lung carcinoma cells; assay: Antiproliferative activity, crystal violet assay; assay type: cell-based; details: 72 h exposure, SD in parentheses, n = 3
Description: (§7) The antiproliferative potential of the gold–NHC complexes was determined in A549 lung carcinoma cells, MDA-MB-231 breast cancer cells, MCF-7 breast adenocarcinoma cells, and HT-29 colon carcinoma cells (Table 1). Vero E6 African green monkey kidney cells served as a reference cell line to check for possible tumour selectivity. Auranofin (AF) was used as an established reference drug.[15,17] […]
(§8) S2.2. Cytotoxicity and Anticancer Studies
(§9) Cell culture and cytotoxicity
(§10) Cell lines were sourced from DSMZ (German Collection of Microorganisms and Cell Cultures GmbH) and maintained through standard procedures in Dulbecco's Modified Eagle Medium (DMEM) supplemented with 10% fetal calf serum and 50 mg/L gentamycin. Antiproliferative effects were assessed using a well-established assay protocol. In brief, 100 μL volumes of A549 cells (13,243 cells per mL), HT-29 cells (14,657 cells per mL), MDA-MB-231 cells (6,613 cells per mL), or MCF-7 cells (6,917 cells per mL) were transferred into the wells of 96-well plates and incubated at 37°C/5% CO2 for 72 […]
(§11) Freshly prepared stock solutions of the compounds in DMSO were diluted with the respective cell culture medium to achieve graded concentrations (final concentration of DMSO: 0.1% v/v). After 72 hours (A549, HT-29) or 96 hours (MCF-7, MDA-MB-231) of exposure, the cell biomass was assessed through crystal violet staining, and the IC50 value was determined as the concentration causing 50% inhibition of cell proliferation compared to an untreated control. Results were calculated as the mean values of three independent experiments.

[14] = test system: HT-29 colon carcinoma cells; assay: Antiproliferative activity, crystal violet assay; assay type: cell-based; details: 72 h exposure, SD in parentheses, n = 3
Description: as §7, §8, §9, §10, §11

[15] = test system: MCF-7 breast adenocarcinoma cells; assay: Antiproliferative activity, crystal violet assay; assay type: cell-based; details: 96 h exposure, SD in parentheses, n = 3
Description: as §7, §8, §9, §10, §11

[16] = test system: MDA-MB-231 breast cancer cells; assay: Antiproliferative activity, crystal violet assay; assay type: cell-based; details: 96 h exposure, SD in parentheses, n = 3
Description: as §7, §8, §9, §10, §11

[17] = test system: Vero E6 African green monkey kidney cells; assay: Antiproliferative activity in non-tumour reference cell line; assay type: cell-based; details: Vero E6 non-tumour reference cell line; SD in parentheses, n = 3
Description: as §7, §8, §9, §10, §11

[18] = Table 2, MRSA DSM 11822, 18 h, 37 °C
[19] = Table S12, ± standard error of the mean

SMILES	MIC, A.b. [1]	MIC, A. baumannii [1]	MIC, E.f. [2]	MIC, E. faecium [2]	MIC, E.c. [3]	MIC, E. coli [3]	MIC, K.p. [4]	MIC, K. pneumoniae [4]	MIC, P.a. [5]	MIC, P. aeruginosa [5]	MIC, MRSA [6, 18]	MIC, MRSA [6, 19]	other results
Cn1cc(C(=O)O)[n+](C)[c]1[Au-][Cl] [2a]	43 ± 0 µM	42.95 ± 0 µM	>100 µM	> 100 µM	86 ± 0 µM	85.89 ± 0 µM	43 ± 7 µM	42.95 ± 6.75 µM	>100 µM	> 100 µM	>100 µM	> 100 µM	IC50 [7]: 60 µM; IC50 [8]: 63.9 µM; IC50 [9]: 53.4 µM; IC50 [10]: 76.1 µM; IC50 [11]: 0.786 ± 0.118 µM; TrxR activity, % of control ([12]; compounds at 0.5 µM, n = 2, Table S13): 94.6 % of control
CC(=O)OC[C@H]1O[C@@H]([S-])[C@H](OC(C)=O)[C@@H](OC(C)=O)[C@@H]1OC(C)=O.CCP(CC)CC.[Au+] [AF, auranofin, reference compound]	55 µM	55 µM	0.3 µM	0.3 µM	46 µM	46 µM	81 µM	81 µM	>100 µM	> 100 µM	0.4 µM	0.4 µM	IC50 [13]: 3.53 µM; IC50 [14]: 4.32 µM; IC50 [15]: 1.89 µM; IC50 [16]: 0.8 µM; IC50 [17]: 2.4 µM; IC50 ([12]; isolated E. coli TrxR, DTNB assay, ± standard deviation, n = 3): 0.21 ± 0.03 µM
